Results reported in patent publication US6962912B2, “Substituted pyrazolo[4,3-e]diazepines, pharmaceutical compositions containing them, use as medicinal products and processes for preparing them” (Warner-Lambert LLC, priority 2000, dated 2005).

Legend:
PDE4 = experiment: Inhibition of PDE4 (cytosolic enzyme preparation from U937 line), compared with rolipram; assay type: biochemical, human; details: PDE4 enzyme preparation obtained from the U937 line
production of TNFα = experiment: in vivo TNFα model in Wistar rats (LPS-induced); details: oral administration 30 min before i.p. LPS; plasma 90 min after LPS; male Wistar rats
Description: TNFα is a cytokine which plays a central role in the mechanisms of inflammation. Its production can be induced by an injection of lipopolysaccharide (LPS). It has been shown that the increase in intracellular cAMP, produced in particular by PDE4 inhibitors, decreases the production of TNFα in in vitro and in vivo models. It is thus a matter here of quantifying in vivo the anti-inflammatory potential of the compounds of the invention, administered orally (p.o.) by measuring the inhibition of the production of TNFα in the plasma of rats, these rats having received an intraperitoneal (i.p.) injection of lipopolysaccharide (LPS). The treatment with the compounds of the invention or the vehicle are [sic] administered orally to male Wistar rats, 30 min before the injection of LPS. The rats are sacrificed 90 min after the stimulation with LPS, the blood is collected onto EDTA and the TNFα concentration is measured in each plasma sample. […] References • Chen, Y. L., Le Vraux, V., Giroud, J. P. and Chauvelot-Moachon L. (1994). Anti-tumor necrosis factor properties of non-peptide drugs in acute-phase responses. […] Int. J. Immunopharmacol., 16 (10), 805-816. Model of Eosinophilia in Rats

CCn1nc(C)c2c1C(=O)NCC(c1ccc(C)cc1)=N2 [Example 23, 1-Ethyl-3-methyl-5-p-tolyl-6,7-dihydro-1H-pyrazolo[4,3-e][1,4]diazepin-8-one]
IC50 (PDE4): 42 nM | inhibition of the production of TNFα in the plasma of rats (production of TNFα): excellent activity | melting point: 185 °C

CCCn1nc(C(C)C)c2c1C(=O)NCC(c1ccc(C#N)cc1)=N2 [Example 42, 4-(3-Isopropyl-8-oxo-1-propyl-1,6,7,8-tetrahydro-pyrazolo[4,3-e][1,4]diazepin-5-yl)benzonitrile]
IC50 (PDE4): 10 nM | inhibition of the production of TNFα in the plasma of rats (production of TNFα): excellent activity

CCCn1nc(C2CCCCC2)c2c1C(=O)NCC(c1ccncc1)=N2 [Example 75, 3-Cyclohexyl-1-propyl-5-pyrid-4-yl-6,7-dihydro-1H-pyrazolo-[4,3-e][1,4]diazepin-8-one]
IC50 (PDE4): 4.9 nM | inhibition of the production of TNFα in the plasma of rats (production of TNFα): excellent activity

CCn1nc(C)c2c1C(=O)NCC(c1ccc(OC)cc1)=N2 [Example 6, 1-Ethyl-5-(4-methoxyphenyl)-3-methyl-6,7-dihydro-1H-pyrazolo[4,3-e][1,4]diazepin-8-one]
IC50 (PDE4): 420 nM | inhibition of the production of TNFα in the plasma of rats (production of TNFα): excellent activity | melting point: 178 °C

CCn1nc(C(C)(C)C)c2c1C(=O)NCC(c1ccc(C#N)cc1)=N2 [Example 46, 4-(3-tert-Butyl-1-ethyl-8-oxo-1,6,7,8-tetrahydro-pyrazolo[4,3-e][1,4]diazepin-5-yl)benzonitrile]
IC50 (PDE4): 0.84 nM | inhibition of the production of TNFα in the plasma of rats (production of TNFα): excellent activity

CCn1nc(C)c2c1C(=O)NCC(c1ccncc1)=N2 [Example 32, 1-Ethyl-3-methyl-5-pyrid-4-yl-6,7-dihydro-1H-pyrazolo[4,3-e][1,4]diazepin-8-one]
IC50 (PDE4): 130 nM | inhibition of the production of TNFα in the plasma of rats (production of TNFα): excellent activity | melting point: 148 °C

CCC(C)c1nn(CC)c2c1N=C(c1ccncc1)CNC2=O (racemic) [Example 69, (±)3-sec-Butyl-1-ethyl-5-pyrid-4-yl-6,7-dihydro-1H-pyrazolo[4,3-e][1,4]diazepin-8-one]
IC50 (PDE4): 13 nM | inhibition of the production of TNFα in the plasma of rats (production of TNFα): excellent activity | melting point: 86 to 88.5 °C

CCCn1nc(C(C)C)c2c1C(=O)NCC(c1ccc(C)cc1)=N2 [Example 41, 3-Isopropyl-1-propyl-5-p-tolyl-6,7-dihydro-1H-pyrazolo[4,3-e][1,4]diazepin-8-one]
IC50 (PDE4): 11 nM | inhibition of the production of TNFα in the plasma of rats (production of TNFα): excellent activity

CCn1nc(C(C)C)c2c1C(=O)NCC(C(C)(C)C)=N2 [Example 35, 5-tert-Butyl-1-ethyl-3-isopropyl-6,7-dihydro-1H-pyrazolo[4,3-e][1,4]diazepin-8-one]
IC50 (PDE4): 0.7 nM | inhibition of the production of TNFα in the plasma of rats (production of TNFα): excellent activity

CCn1nc(C2CCCCC2)c2c1C(=O)NCC(c1ccncc1)=N2 [Example 73, 3-Cyclohexyl-1-ethyl-5-pyrid-4-yl-6,7-dihydro-1H-pyrazolo-[4,3-e][1,4]diazepin-8-one]
IC50 (PDE4): 0.73 nM | inhibition of the production of TNFα in the plasma of rats (production of TNFα): excellent activity | melting point: 126 to 127 °C

CCn1nc(C)c2c1C(=NC#N)NCC(c1ccccc1)=N2 [Example 55, 1-Ethyl-3-methyl-5-phenyl-6,7-dihydro-1H-pyrazolo[4,3-e][1,4]diazepin-8-ylidenecyanamide]
IC50 (PDE4): 1.7 nM | inhibition of the production of TNFα in the plasma of rats (production of TNFα): excellent activity | melting point: 280 °C

CCC(C)c1nn(CC)c2c1N=C(c1ccccc1)CNC2=O (racemic) [Example 68, (±)3-sec-Butyl-1-ethyl-5-phenyl-6,7-dihydro-1H-pyrazolo[4,3-e][1,4]diazepin-8-one]
IC50 (PDE4): 6.2 nM | inhibition of the production of TNFα in the plasma of rats (production of TNFα): excellent activity

CCn1nc(C)c2c1C(=O)NCC(C1CCCCC1)=N2 [Example 31, 5-Cyclohexyl-1-ethyl-3-methyl-6,7-dihydro-1H-pyrazolo[4,3-e][1,4]diazepin-8-one]
IC50 (PDE4): 190 nM | inhibition of the production of TNFα in the plasma of rats (production of TNFα): excellent activity | melting point: 50 °C

CCn1nc(C(C)(C)C)c2c1C(=S)NCC(c1ccccc1)=N2 [Example 25, 3-tert-Butyl-1-ethyl-5-phenyl-6,7-dihydro-1H-pyrazolo[4,3-e][1,4]diazepin-8-thione]
IC50 (PDE4): 2.4 nM | inhibition of the production of TNFα in the plasma of rats (production of TNFα): excellent activity | melting point: 230 °C

CCn1nc(C(C)C)c2c1C(=S)NCC(c1ccccc1)=N2 [Example 2, 1-Ethyl-3-isopropyl-5-phenyl-6,7-dihydro-1H-pyrazolo[4,3-e][1,4]diazepin-8-thione]
IC50 (PDE4): 0.98 nM | inhibition of the production of TNFα in the plasma of rats (production of TNFα): excellent activity | melting point: 164 °C

CCn1nc(C(C)C)c2c1C(=O)NCC(c1ccccc1)=N2 [Example 1, 1-Ethyl-3-isopropyl-5-phenyl-6,7-dihydro-1H-pyrazolo[4,3-e][1,4]diazepin-8-one]
IC50 (PDE4): 4.9 nM | inhibition of the production of TNFα in the plasma of rats (production of TNFα): excellent activity | melting point: 157.2 °C

CCn1nc(C(C)(C)C)c2c1C(=O)NCC(c1ccccc1)=N2 [Example 21, 3-tert-Butyl-1-ethyl-5-phenyl-6,7-dihydro-1H-pyrazolo[4,3-e][1,4]diazepin-8-one]
IC50 (PDE4): 2.6 nM | inhibition of the production of TNFα in the plasma of rats (production of TNFα): excellent activity | melting point: 160 °C

CCCn1nc(C)c2c1C(=O)NCC(c1ccccc1)=N2 [Example 15, 3-Methyl-5-phenyl-1-propyl-6,7-dihydro-1H-pyrazolo-[4,3-e][1,4]diazepin-8-one]
IC50 (PDE4): 520 nM | inhibition of the production of TNFα in the plasma of rats (production of TNFα): excellent activity | melting point: 171 °C

CCCCc1nn(CC)c2c1N=C(c1ccccc1)CNC2=O [Example 34, 3-Butyl-1-ethyl-5-phenyl-6,7-dihydro-1H-pyrazolo[4,3-e][1,4]diazepin-8-one]
IC50 (PDE4): 4.7 nM | inhibition of the production of TNFα in the plasma of rats (production of TNFα): excellent activity | melting point: 105.4 °C

CCCn1nc(C(C)CC)c2c1C(=O)NCC(c1ccncc1)=N2 (racemic) [Example 71, (±)3-sec-Butyl-1-propyl-5-pyrid-4-yl-6,7-dihydro-1H-pyrazolo[4,3-e][1,4]diazepin-8-one]
IC50 (PDE4): 35 nM | inhibition of the production of TNFα in the plasma of rats (production of TNFα): excellent activity | melting point: 110 °C

Cc1nn(CCO)c2c1N=C(c1ccccc1)CNC2=O [Example 16, 1-(2-Hydroxyethyl)-3-methyl-5-phenyl-6,7-dihydro-1H-pyrazolo[4,3-e][1,4]diazepin-8-one]
IC50 (PDE4): 420 nM | inhibition of the production of TNFα in the plasma of rats (production of TNFα): excellent activity | melting point: 75 °C

CCn1nc(C(C)C)c2c1C(=NC#N)NCC(c1ccccc1)=N2 [Example 3, 1-Ethyl-3-isopropyl-5-phenyl-6,7-dihydro-1H-pyrazolo[4,3-e][1,4]diazepin-8-ylidenecyanamide]
IC50 (PDE4): 0.12 nM | inhibition of the production of TNFα in the plasma of rats (production of TNFα): excellent activity | melting point: 222 °C

CCn1nc(C(C)C)c2c1C(=O)NCC(c1ccc(C)cc1)=N2 [Example 36, 1-Ethyl-3-isopropyl-5-p-tolyl-6,7-dihydro-1H-pyrazolo[4,3-e][1,4]diazepin-8-one]
IC50 (PDE4): 0.39 nM | inhibition of the production of TNFα in the plasma of rats (production of TNFα): excellent activity

CCCn1nc(C(C)C)c2c1C(=O)NCC(C(C)(C)C)=N2 [Example 40, 5-tert-Butyl-3-isopropyl-1-propyl-6,7-dihydro-1H-pyrazolo[4,3-e][1,4]diazepin-8-one]
IC50 (PDE4): 8.2 nM | inhibition of the production of TNFα in the plasma of rats (production of TNFα): excellent activity

CCn1nc(C(C)C)c2c1C(=O)NCC(c1ccc(OC)cc1OC)=N2 [Example 39, 5-(2,4-Dimethoxyphenyl)-1-ethyl-3-isopropyl-6,7-dihydro-1H-pyrazolo[4,3-e][1,4]diazepin-8-one]
IC50 (PDE4): 9.1 nM | inhibition of the production of TNFα in the plasma of rats (production of TNFα): excellent activity

CCn1nc(C)c2c1C(=O)NCC(c1ccc(N)cc1)=N2 [Example 12, 5-(4-Aminophenyl)-1-ethyl-3-methyl-6,7-dihydro-1H-pyrazolo-[4,3-e][1,4]diazepin-8-one]
IC50 (PDE4): 100 nM | inhibition of the production of TNFα in the plasma of rats (production of TNFα): excellent activity | melting point: 212 °C

CCn1nc(C(C)C)c2c1C(=O)NCC(c1ccc(C#N)cc1)=N2 [Example 37, 4-(1-Ethyl-3-isopropyl-8-oxo-1,6,7,8-tetrahydro-pyrazolo[4,3-e][1,4]diazepin-5-yl)benzonitrile]
IC50 (PDE4): 0.97 nM | inhibition of the production of TNFα in the plasma of rats (production of TNFα): excellent activity

CCn1nc(C)c2c1C(=O)NCC(C(C)(C)C)N2 (centres unmarked) [5-tert-Butyl-1-ethyl-3-methyl-4,5,6,7-tetrahydro-1H-pyrazolo[4,3-e][1,4]diazepin-8-one]
inhibition of the production of TNFα in the plasma of rats (production of TNFα): excellent activity

CCn1nc(C(C)(C)C)c2c1C(=O)NCC(c1ccc(C)cc1)=N2 [Example 45, 3-tert-Butyl-1-ethyl-5-p-tolyl-6,7-dihydro-1H-pyrazolo[4,3-e][1,4]diazepin-8-one]
IC50 (PDE4): 2.6 nM | inhibition of the production of TNFα in the plasma of rats (production of TNFα): excellent activity
